Read-outs that look alike come from different tables or passages of the source.
Target: T1, SIRT1 (Homo sapiens, UniProt Q96EB6)
T1 sequence (Q96EB6 1-747): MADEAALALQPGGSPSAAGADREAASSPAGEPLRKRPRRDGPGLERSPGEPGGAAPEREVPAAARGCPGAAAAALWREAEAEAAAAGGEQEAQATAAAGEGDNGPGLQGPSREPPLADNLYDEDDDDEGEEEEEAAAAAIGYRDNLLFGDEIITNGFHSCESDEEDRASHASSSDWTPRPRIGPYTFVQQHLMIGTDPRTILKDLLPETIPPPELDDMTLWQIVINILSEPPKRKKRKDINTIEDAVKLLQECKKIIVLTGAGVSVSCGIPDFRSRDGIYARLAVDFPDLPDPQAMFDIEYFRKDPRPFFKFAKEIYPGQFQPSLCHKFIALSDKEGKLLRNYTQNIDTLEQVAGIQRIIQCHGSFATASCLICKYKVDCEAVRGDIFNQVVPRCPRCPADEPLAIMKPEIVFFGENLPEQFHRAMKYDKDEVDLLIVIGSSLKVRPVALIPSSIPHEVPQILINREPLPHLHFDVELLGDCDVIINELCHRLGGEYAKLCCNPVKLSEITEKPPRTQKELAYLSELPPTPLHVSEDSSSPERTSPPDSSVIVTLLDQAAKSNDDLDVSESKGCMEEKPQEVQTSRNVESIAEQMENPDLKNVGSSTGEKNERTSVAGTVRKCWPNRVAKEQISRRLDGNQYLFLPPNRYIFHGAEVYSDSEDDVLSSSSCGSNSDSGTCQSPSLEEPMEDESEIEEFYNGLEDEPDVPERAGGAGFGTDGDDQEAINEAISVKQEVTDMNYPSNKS
Assay: Trp mass spectrometry assay of SIRT1 activation (Ac-R-H-K-K(Ac)-W-NH2 peptide)
Assay type: biochemical
Conditions: for Emax: 25 min, read-out: TRP MAX RESP (percent maximum fold activation)
Summary of the method: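 N-terminal His-tagged human SIRT1, expressed in BL21(DE3) and purified, was incubated 25 min with an acetylated Trp peptide and NAD plus test compound at varying concentrations, then quenched with formic acid. OAADPR or deacetylated peptide was quantified by mass spectrometry versus compound-free control; EC1.5 is the concentration giving 50% activity increase, with percent maximum activation.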

[1] = Trp peptide 0.5 μM, 120 μM βNAD+, 10 nM SIRT1, 25 min at 25° C., relative to control (100%)
[2] = Trp peptide 0.5 μM, 120 μM βNAD+, 10 nM SIRT1, 25 min at 25° C.

| SMILES | Emax [1] | TRP Activity (EC1.5, concentration of test compound that results in 150% activation of SIRT1) [2] | Emax |
| --- | --- | --- | --- |
| O=C(NC1CCOCC1)c1ccc2c(n1)N(C(=O)Nc1ccccn1)[C@H]1CCN2C1 [Example 4, (4S)—N-5-(pyridin-2-yl)-N-7-(tetrahydro-2H-pyran-4-yl)-3,4-dihydro-1,4-methanopyrido [2,3-b] [1, 4] diazepine-5, 7(2H)-dicarboxamide] | > 150% | B (EC1.5 1-25 μM) |  |
| CC(C)(O)CNC(=O)c1ccc2c(n1)N(C(=O)Nc1ccccn1)[C@H]1CCN2C1 [Example 202, (4S)—N7-(2-hydroxy-2-methylpropyl)-N5-(pyridin-2-yl)-3,4-dihydro-1,4-methanopyrido[2,3-b][1, 4] diazepine-5,7(2H)-dicarboxamide] | > 150% | B (EC1.5 1-25 μM) |  |
| Cc1ccc2c(NC(=O)N3c4nc(C(=O)NCC(N)C(F)(F)F)ccc4N4CC[C@H]3C4)n[nH]c2n1 (single isomer, unassigned) [Example 197] | > 150% | B (EC1.5 1-25 μM) |  |
| C[C@@H](NC(=O)c1ccc2c(n1)N(C(=O)Nc1ncc3[nH]cnc3n1)[C@H]1CCN2C1)C(F)(F)F [Example 166, (4S)—N5-(7H-purin-2-yl)-N7-((R)-1,1,1-trifluoropropan-2-yl)-3,4-dihydro-1,4-methanopyrido[2,3-b][1,4]diazepine-5,7(2H)-dicarboxamide] | > 150% | A (EC1.5<1 μM) |  |
| O=C(c1ccc2c(n1)N(C(=O)Nc1ccccn1)[C@H]1CCN2C1)N1CCC(F)(F)C1 [Example 3, (4S)-7-(3,3-difluoropyrrolidine-1-carbonyl)-N-(pyridin-2-yl)-3,4-dihydro-1,4-methanopyrido[2,3-b] [1, 4] diazepine-5(2H)-carboxamide] | > 150% | B (EC1.5 1-25 μM) |  |
| C[C@@H](NC(=O)c1ccc2c(n1)N(C(=O)Nc1ccncn1)[C@H]1CCN2C1)C(F)(F)F [Example 66, (4S)—N5-(pyrimidin-4-yl)-N7-((R)-1,1,1-trifluoropropan-2-yl)-3,4-dihydro-1,4-methanopyrido[2,3-b][1,4]diazepine-5,7(2H)-dicarboxamide] | > 150% | A (EC1.5<1 μM) |  |
| Cc1nc(NC(=O)N2c3nc(C(=O)NC4CC4)ccc3N3CC[C@H]2C3)ccc1F [Example 205, (4S)—N7-cyclopropyl-N5-(5-fluoro-6-methylpyridin-2-yl)-3,4-dihydro-1,4-methanopyrido[2,3-b][1,4]diazepine-5,7(2H)-dicarboxamide] | > 150% | B (EC1.5 1-25 μM) |  |
| COCC(C)NC(=O)c1ccc2c(n1)N(C(=O)Nc1ccccn1)[C@H]1CCN2C1 (stereo partly drawn) [Example 11, (4S)—N-7-(1-methoxypropan-2-yl)-N-5-(pyridin-2-yl)-3,4-dihydro-1,4-methanopyrido [2,3-b] [1, 4] diazepine-5, 7(2H)-dicarboxamide] | > 150% | B (EC1.5 1-25 μM) |  |
| O=C(NCC(F)(F)F)c1ccc2c(n1)N(C(=O)Nc1ncc3cc[nH]c3n1)[C@H]1CCN2C1 [Example 93, (4S)—N5-(7H-pyrrolo[2,3-d]pyrimidin-2-yl)-N7-(2,2,2-trifluoroethyl)-3,4-dihydro-1,4-methanopyrido[2,3-b][1,4]diazepine-5,7(2H)-dicarboxamide] |  | A (EC1.5<1 μM) | > 150% |
| Cc1ccc2c(NC(=O)N3c4nc(C(=O)NCC(F)(F)F)ccc4N4CC[C@H]3C4)n[nH]c2n1 [Example 64, (4S)—N5-(6-methyl-1H-pyrazolo[3,4-b]pyridin-3-yl)-N7-(2,2,2-trifluoroethyl)-3,4-dihydro-1,4-methanopyrido[2,3-b][1,4]diazepine-5,7(2H)-dicarboxamide] | > 150% | A (EC1.5<1 μM) |  |
| COCC(NC(=O)c1ccc2c(n1)N(C(=O)Nc1ccccn1)[C@H]1CCN2C1)C1CC1 (single isomer, unassigned) [Example 60] |  | A (EC1.5<1 μM) |  |
| O=C(NC[C@H](O)C(F)(F)F)c1ccc2c(n1)N(C(=O)Nc1ccccn1)[C@H]1CCN2C1 [Example 52, (4S)—N5-(pyridin-2-yl)-N7-((S)-3,3,3-trifluoro-2-hydroxypropyl)-3,4-dihydro-1,4-methanopyrido[2,3-b][1,4]diazepine-5,7(2H)-dicarboxamide] | > 150% | A (EC1.5<1 μM) |  |
| O=C(NCC1CC1)c1ccc2c(n1)N(C(=O)Nc1ccc(F)cn1)[C@H]1CCN2C1 [Example 38, (4S)—N7-(cyclopropylmethyl)-N5-(5-fluoropyridin-2-yl)-3,4-dihydro-1,4-methanopyrido[2,3-b][1,4]diazepine-5,7(2H)-dicarboxamide] | > 150% | A (EC1.5<1 μM) |  |
| O=C(NC1CC1)c1ccc2c(n1)N(C(=O)Nc1cnccn1)[C@H]1CCN2C1 [Example 222, (4S)—N7-cyclopropyl-N5-(pyrazin-2-yl)-3,4-dihydro-1,4-methanopyrido[2,3-b][1,4]diazepine-5,7(2H)-dicarboxamide] | > 150% | B (EC1.5 1-25 μM) |  |

Now from value to molecule, other results behind:

| Emax [1] | TRP Activity (EC1.5, concentration of test compound that results in 150% activation of SIRT1) [2] | SMILES | Emax |
| --- | --- | --- | --- |
| > 150% | A (EC1.5<1 μM) | Cc1cc(C(=O)N[C@H](C)C(F)(F)F)nc2c1N1CC[C@@H](C1)N2C(=O)Nc1ccc(OC[C@@H](O)CO)cn1 [Example 290, (4S)—N5-(5-((S)-2,3-dihydroxypropoxy)pyridin-2-yl)-9-methyl-N7-((R)-1,1,1-trifluoropropan-2-yl)-3,4-dihydro-1,4-methanopyrido[2,3-b][1,4]diazepine-5,7(2H)-dicarboxamide] |  |
| < 150% | C (EC1.5>25 μM) | C[C@@H](NC(=O)c1ccc2c(n1)N(C(=O)Nc1cc(C(=O)N[C@H]3CCOC3)ccn1)[C@H]1CCN2C1)C(F)(F)F [Example 264, (4S)—N5-(4-(((S)-tetrahydrofuran-3-yl)carbamoyl)pyridin-2-yl)-N7-((R)-1,1,1-trifluoropropan-2-yl)-3,4-dihydro-1,4-methanopyrido[2,3-b][1,4]diazepine-5,7(2H)-dicarboxamide] |  |
| > 150% | A (EC1.5<1 μM) | O=C(NCC(F)(F)F)c1nc2c(cc1Cl)N1CC[C@@H](C1)N2C(=O)Nc1ccccn1 [Example 279, (4S)-8-chloro-N5-(pyridin-2-yl)-N7-(2,2,2-trifluoroethyl)-3,4-dihydro-1,4-methanopyrido[2,3-b][1,4]diazepine-5,7(2H)-dicarboxamide] |  |
| > 150% | B (EC1.5 1-25 μM) | O=C(NCC(F)(F)F)c1ccc2c(n1)N(C(=O)Nc1ccccn1)[C@H]1CC[N+]2([O-])C1 [Example 295, (4S)-5-(pyridin-2-ylcarbamoyl)-7-((2,2,2-trifluoroethyl)carbamoyl)-2,3,4,5-tetrahydro-1H-1,4-methanopyrido[2,3-b][1,4]diazepine 1-oxide] |  |
| < 150% | A (EC1.5<1 μM) | Cc1cc(C(=O)NCC(F)(F)F)nc2c1N1CC[C@@H](C1)N2C(=O)Nc1cc(OC[C@H](O)CO)ccn1 [Example 294, (4S)—N5-(4-((R)-2,3-dihydroxypropoxy)pyridin-2-yl)-9-methyl-N7-(2,2,2-trifluoroethyl)-3,4-dihydro-1,4-methanopyrido[2,3-b][1,4]diazepine-5,7(2H)-dicarboxamide] |  |
| > 150% | A (EC1.5<1 μM) | O=C(NC1CC1(F)F)c1ccc2c(n1)N(C(=O)Nc1cc(OCCO)ccn1)[C@H]1CCN2C1 (single isomer, unassigned) [Example 262] |  |
| > 150% | B (EC1.5 1-25 μM) | Cc1cccnc1NC(=O)N1c2nc(C(=O)N[C@H](C)C(F)(F)F)ccc2N2CC[C@H]1C2 [Example 247, (4S)—N5-(3-methylpyridin-2-yl)-N7-((R)-1,1,1-trifluoropropan-2-yl)-3,4-dihydro-1,4-methanopyrido[2,3-b][1,4]diazepine-5,7(2H)-dicarboxamide] |  |

Reference: patent publication US10072011B2, “Substituted bridged urea analogs as sirtuin modulators” (GlaxoSmithKline Intellectual Property (No.2) Limited, priority 2014, dated 2018)
